Counter-ions that a name gives are not always drawn. Like-named read-outs stand apart in the source and are kept apart here.
Tests used:
cardiac microtissues [1] = assay: ATP depletion (CellTiter Glo Luminescent Cell Viability Assay) in cardiac microtissues; format: cell-based, human; conditions: the concentration is the IC30 of ATP depletion, or cell death caused
Method: Cellular ATP concentrations were also assessed using the CellTiter Glo® Luminescent Cell Viability Assay as per the manufacturer’s instructions (Promega).

[2] = ref FDA label, cited from earlier work; for Structural cardiotoxin?: FDA label references heart failure or a decrease in left ventricular ejection fraction; for Functional cardiotoxin?: compound annotation
cardiac microtissues [3] = assay: Transcriptomic profiling (mRNA-seq) and DESeq2 differential gene expression analysis in cardiac microtissues; conditions: for number of significant differentially expressed genes, 6hr high / number of significant differentially expressed genes, 6hr low / number of significant differentially expressed genes, 48hr high / number of significant differentially expressed genes, 48hr low / number of significant differentially expressed genes, 72hr high / number of significant differentially expressed genes, 72hr low: absolute log2(Fold-Change) > 1, FDR p ≤ 0.05; for number of significant differentially expressed genes, 6hr high / number of significant differentially expressed genes, 48hr high / number of significant differentially expressed genes, 72hr high: high concentration; for number of significant differentially expressed genes, 6hr low / number of significant differentially expressed genes, 48hr low / number of significant differentially expressed genes, 72hr low: low concentration
cardiac microtissues [4] = assay: Ingenuity Pathway Analysis over-representation of differentially expressed genes (activation Z-score); format: cell-based, human; conditions: 48hr high; Group 2
cardiac microtissues [5] = assay: Targeted qRT-PCR of ATAD3C, CDH13, IL6, PTX3, SLC7A5, UCHL1 in cardiac microtissues; format: cell-based, human; conditions: Sorafenib 3.74 µM, Sunitinib 3.53 µM, Dasatinib 10.8 µM; for activity at 3.74 µM: Homo sapiens, read-out: % of control
Method: The experiment was performed with three technical replicates across 1-2 independent replicates.

Compound: COc1cccc2c1C(=O)c1c(O)c3c(c(O)c1C2=O)C[C@@](O)(C(=O)CO)C[C@@H]3O[C@H]1C[C@H](N)[C@H](O)[C@H](C)O1 [Doxorubicin HCl]
- Transcriptomic high concentration (µM) = IC30 of ATP depletion (cardiac microtissues [1]): 0.36 µM
- Structural cardiotoxin? [2]: Y
- Functional cardiotoxin? [2]: Y
- number of significant differentially expressed genes, 6hr high (cardiac microtissues [3]): 17
- number of significant differentially expressed genes, 6hr low (cardiac microtissues [3]): 26
- number of significant differentially expressed genes, 48hr high (cardiac microtissues [3]): 5
- number of significant differentially expressed genes, 48hr low (cardiac microtissues [3]): 5
- number of significant differentially expressed genes, 72hr high (cardiac microtissues [3]): 4
- number of significant differentially expressed genes, 72hr low (cardiac microtissues [3]): 5
- impact on gene expression profiles (cardiac microtissues [3]; cardiac microtissues, all treatments): low impact on gene expression profiles

Compound: CS(=O)(=O)CCNCc1ccc(-c2ccc3ncnc(Nc4ccc(OCc5cccc(F)c5)c(Cl)c4)c3c2)o1 [Lapatinib]
- Transcriptomic high concentration (µM) = IC30 of ATP depletion (cardiac microtissues [1]): 5.53 µM
- Structural cardiotoxin? [2]: Y
- Functional cardiotoxin? [2]: Y
- number of significant differentially expressed genes, 6hr high (cardiac microtissues [3]): 27
- number of significant differentially expressed genes, 6hr low (cardiac microtissues [3]): 17
- number of significant differentially expressed genes, 48hr high (cardiac microtissues [3]): 13
- number of significant differentially expressed genes, 48hr low (cardiac microtissues [3]): 40
- number of significant differentially expressed genes, 72hr high (cardiac microtissues [3]): 29
- number of significant differentially expressed genes, 72hr low (cardiac microtissues [3]): 18

Compound: CNC(=O)c1cc(Oc2ccc(NC(=O)Nc3ccc(Cl)c(C(F)(F)F)c3)cc2)ccn1 [Sorafenib Tosylate]
- activation Z-score: Acute Phase Response Signaling (cardiac microtissues [4]): -1.414
- activation Z-score: Adrenomedullin signaling pathway (cardiac microtissues [4]): 0.447
- activation Z-score: Aryl Hydrocarbon Receptor Signaling (cardiac microtissues [4]): -1.342
- activation Z-score: Breast Cancer Regulation by Stathmin1 (cardiac microtissues [4]): -2.111
- activation Z-score: Cardiac Hypertrophy Signaling (Enhanced) (cardiac microtissues [4]): -1.387
- activation Z-score: Cell Cycle: G2/M DNA Damage Checkpoint Regulation (cardiac microtissues [4]): -2.236
- activation Z-score: Colorectal Cancer Metastasis Signaling (cardiac microtissues [4]): -1.633
- activation Z-score: Cyclins and Cell Cycle Regulation (cardiac microtissues [4]): 1.342
- activation Z-score: Endothelin-1 Signaling (cardiac microtissues [4]): -2
- activation Z-score: G-Protein Coupled Receptor Signaling (cardiac microtissues [4]): -1.897
- activation Z-score: HIF1Î± Signaling (cardiac microtissues [4]): -0.447
- activation Z-score: HMGB1 Signaling (cardiac microtissues [4]): -1.897
- activation Z-score: Hepatic Fibrosis Signaling Pathway (cardiac microtissues [4]): -2.111
- activation Z-score: IL-6 Signaling (cardiac microtissues [4]): -1.667
- activation Z-score: IL-8 Signaling (cardiac microtissues [4]): -2
- activation Z-score: ILK Signaling (cardiac microtissues [4]): -1
- activation Z-score: Immunogenic Cell Death Signaling Pathway (cardiac microtissues [4]): -1
- activation Z-score: Kinetochore Metaphase Signaling Pathway (cardiac microtissues [4]): 1.886
- activation Z-score: LXR/RXR Activation (cardiac microtissues [4]): 2.333
- activation Z-score: Leukocyte Extravasation Signaling (cardiac microtissues [4]): -2
- activation Z-score: MIF Regulation of Innate Immunity (cardiac microtissues [4]): -2
- activation Z-score: Macrophage Alternative Activation Signaling Pathway (cardiac microtissues [4]): 2.236
- activation Z-score: Osteoarthritis Pathway (cardiac microtissues [4]): -2.714
- activation Z-score: Oxytocin Signaling Pathway (cardiac microtissues [4]): -2.236
- activation Z-score: PPAR Signaling (cardiac microtissues [4]): 2.236
- activation Z-score: Pulmonary Fibrosis Idiopathic Signaling Pathway (cardiac microtissues [4]): -1.897
- activation Z-score: Pulmonary Healing Signaling Pathway (cardiac microtissues [4]): -0.447
- activation Z-score: Pyridoxal 5'-phosphate Salvage Pathway (cardiac microtissues [4]): 2.236
- activation Z-score: Regulation Of The Epithelial Mesenchymal Transition By Growth Factors Pathway (cardiac microtissues [4]): -1.89
- activation Z-score: Ribonucleotide Reductase Signaling Pathway (cardiac microtissues [4]): -0.816
- activation Z-score: Role of IL-17F in Allergic Inflammatory Airway Diseases (cardiac microtissues [4]): -2
- activation Z-score: Role of JAK family kinases in IL-6-type Cytokine Signaling (cardiac microtissues [4]): -1.414
- activation Z-score: Salvage Pathways of Pyrimidine Ribonucleotides (cardiac microtissues [4]): 2.236
- activation Z-score: Senescence Pathway (cardiac microtissues [4]): -1.89
- activation Z-score: Signaling by Rho Family GTPases (cardiac microtissues [4]): -0.447
- activation Z-score: TREM1 Signaling (cardiac microtissues [4]): -2
- activation Z-score: White Adipose Tissue Browning Pathway (cardiac microtissues [4]): 0
- activation Z-score: Wound Healing Signaling Pathway (cardiac microtissues [4]): -2.714
- activity at 3.74 µM (cardiac microtissues [5]; gene ATAD3C, Run 1): 85.7%
- activity at 3.74 µM (cardiac microtissues [5]; gene CDH13, Run 1): 74%
- activity at 3.74 µM (cardiac microtissues [5]; gene CDH13, Run 2): 113%
- activity at 3.74 µM (cardiac microtissues [5]; gene IL6, Run 1): 35.3%
- activity at 3.74 µM (cardiac microtissues [5]; gene IL6, Run 2): 6.7%
- activity at 3.74 µM (cardiac microtissues [5]; gene PTX3, Run 1): 73.7%
- activity at 3.74 µM (cardiac microtissues [5]; gene PTX3, Run 2): 74%
- activity at 3.74 µM (cardiac microtissues [5]; gene SLC7A5, Run 1): 57%
- activity at 3.74 µM (cardiac microtissues [5]; gene SLC7A5, Run 2): 50.2%
- activity at 3.74 µM (cardiac microtissues [5]; gene UCHL1, Run 1): 66.2%
- activity at 3.74 µM (cardiac microtissues [5]; gene UCHL1, Run 2): 70.9%
- 2^-ΔΔCt of Individual reps, Treated 1 (cardiac microtissues [5]; gene ATAD3C, Run 1): 0.8342
- 2^-ΔΔCt of Individual reps, Treated 2 (cardiac microtissues [5]; gene ATAD3C, Run 1): 0.8632
- 2^-ΔΔCt of Individual reps, Treated 3 (cardiac microtissues [5]; gene ATAD3C, Run 1): 0.8757
- Average 2^-ΔΔCt, Treated (cardiac microtissues [5]; gene ATAD3C, Run 1): 0.8577
- 2^-ΔΔCt of Individual reps, Treated 1 (cardiac microtissues [5]; gene CDH13, Run 1): 0.6992
- 2^-ΔΔCt of Individual reps, Treated 2 (cardiac microtissues [5]; gene CDH13, Run 1): 0.7927
- 2^-ΔΔCt of Individual reps, Treated 3 (cardiac microtissues [5]; gene CDH13, Run 1): 0.7507
- Average 2^-ΔΔCt, Treated (cardiac microtissues [5]; gene CDH13, Run 1): 0.7476
- 2^-ΔΔCt of Individual reps, Treated 1 (cardiac microtissues [5]; gene CDH13, Run 2): 1.515
- 2^-ΔΔCt of Individual reps, Treated 2 (cardiac microtissues [5]; gene CDH13, Run 2): 1.105
- 2^-ΔΔCt of Individual reps, Treated 3 (cardiac microtissues [5]; gene CDH13, Run 2): 0.7867
- Average 2^-ΔΔCt, Treated (cardiac microtissues [5]; gene CDH13, Run 2): 1.136
- 2^-ΔΔCt of Individual reps, Treated 1 (cardiac microtissues [5]; gene IL6, Run 1): 0.3353
- 2^-ΔΔCt of Individual reps, Treated 2 (cardiac microtissues [5]; gene IL6, Run 1): 0.4238
- 2^-ΔΔCt of Individual reps, Treated 3 (cardiac microtissues [5]; gene IL6, Run 1): 0.3063
- Average 2^-ΔΔCt, Treated (cardiac microtissues [5]; gene IL6, Run 1): 0.3551
- 2^-ΔΔCt of Individual reps, Treated 1 (cardiac microtissues [5]; gene IL6, Run 2): 0.169
- 2^-ΔΔCt of Individual reps, Treated 2 (cardiac microtissues [5]; gene IL6, Run 2): 0.0204
- 2^-ΔΔCt of Individual reps, Treated 3 (cardiac microtissues [5]; gene IL6, Run 2): 0.0311
- Average 2^-ΔΔCt, Treated (cardiac microtissues [5]; gene IL6, Run 2): 0.07349
- 2^-ΔΔCt of Individual reps, Treated 1 (cardiac microtissues [5]; gene PTX3, Run 1): 0.6982
- 2^-ΔΔCt of Individual reps, Treated 2 (cardiac microtissues [5]; gene PTX3, Run 1): 0.8787
- 2^-ΔΔCt of Individual reps, Treated 3 (cardiac microtissues [5]; gene PTX3, Run 1): 0.6669
- Average 2^-ΔΔCt, Treated (cardiac microtissues [5]; gene PTX3, Run 1): 0.7479
- 2^-ΔΔCt of Individual reps, Treated 1 (cardiac microtissues [5]; gene PTX3, Run 2): 0.9568
- 2^-ΔΔCt of Individual reps, Treated 2 (cardiac microtissues [5]; gene PTX3, Run 2): 0.4098
- 2^-ΔΔCt of Individual reps, Treated 3 (cardiac microtissues [5]; gene PTX3, Run 2): 0.8963
- Average 2^-ΔΔCt, Treated (cardiac microtissues [5]; gene PTX3, Run 2): 0.7543
- 2^-ΔΔCt of Individual reps, Treated 1 (cardiac microtissues [5]; gene SLC7A5, Run 1): 0.5608
- 2^-ΔΔCt of Individual reps, Treated 2 (cardiac microtissues [5]; gene SLC7A5, Run 1): 0.6339
- 2^-ΔΔCt of Individual reps, Treated 3 (cardiac microtissues [5]; gene SLC7A5, Run 1): 0.5348
- Average 2^-ΔΔCt, Treated (cardiac microtissues [5]; gene SLC7A5, Run 1): 0.5765
- 2^-ΔΔCt of Individual reps, Treated 1 (cardiac microtissues [5]; gene SLC7A5, Run 2): 0.6489
- 2^-ΔΔCt of Individual reps, Treated 2 (cardiac microtissues [5]; gene SLC7A5, Run 2): 0.4574
- 2^-ΔΔCt of Individual reps, Treated 3 (cardiac microtissues [5]; gene SLC7A5, Run 2): 0.4262
- Average 2^-ΔΔCt, Treated (cardiac microtissues [5]; gene SLC7A5, Run 2): 0.5108
- 2^-ΔΔCt of Individual reps, Treated 1 (cardiac microtissues [5]; gene UCHL1, Run 1): 0.6452
- 2^-ΔΔCt of Individual reps, Treated 2 (cardiac microtissues [5]; gene UCHL1, Run 1): 0.6787
- 2^-ΔΔCt of Individual reps, Treated 3 (cardiac microtissues [5]; gene UCHL1, Run 1): 0.6738
- Average 2^-ΔΔCt, Treated (cardiac microtissues [5]; gene UCHL1, Run 1): 0.6659
- 2^-ΔΔCt of Individual reps, Treated 1 (cardiac microtissues [5]; gene UCHL1, Run 2): 0.8432
- 2^-ΔΔCt of Individual reps, Treated 2 (cardiac microtissues [5]; gene UCHL1, Run 2): 0.6978
- 2^-ΔΔCt of Individual reps, Treated 3 (cardiac microtissues [5]; gene UCHL1, Run 2): 0.5876
- Average 2^-ΔΔCt, Treated (cardiac microtissues [5]; gene UCHL1, Run 2): 0.7095
- Transcriptomic high concentration (µM) = IC30 of ATP depletion (cardiac microtissues [1]): 3.74 µM
- Structural cardiotoxin? [2]: Y
- Functional cardiotoxin? [2]: Y
- number of significant differentially expressed genes, 6hr high (cardiac microtissues [3]): 13
- number of significant differentially expressed genes, 6hr low (cardiac microtissues [3]): 7
- number of significant differentially expressed genes, 48hr high (cardiac microtissues [3]): 268
- number of significant differentially expressed genes, 48hr low (cardiac microtissues [3]): 150
- number of significant differentially expressed genes, 72hr high (cardiac microtissues [3]): 204
- number of significant differentially expressed genes, 72hr low (cardiac microtissues [3]): 143

From PMC11213733, “Computational approaches identify a transcriptomic fingerprint of drug-induced structural cardiotoxicity” (Cell Biology and Toxicology, 2024)
